One may read the melting point as the temperature of the solid-liquid transition. `O=C(c1c[nH]c2nc(Cl)ccc12)N1CCN2CCC1CC2`: the melting point was in the range of 228 to 229 °C.

Source of the values: patent publication US7456171B2, “1,4-Diazabicyclo[3.2.2]nonanecarboxamide derivatives, preparation and therapeutic use thereof” (Sanofi-Aventis, priority 2002, dated 2008).
